Results from publication PMC9186362, “Design and biological evaluation of substituted 5,7-dihydro-6H-indolo[2,3-c]quinolin-6-one as novel selective Haspin inhibitors” (Journal of Enzyme Inhibition and Medicinal Chemistry, 2022).

Legend:
U-2 OS cells = assay: Cell cycle analysis by flow cytometry; assay type: cell-based, human; conditions: 1 µM, 24 h
Description: After treatment with the compounds, cells were trypsinized and washed once in PBS. Cells were fixed for 1 h in ice-cold 70% ethanol, then washed once in PBS, centrifuged at 200 g and resuspended in a PBS buffer containing 100 µg/ml RNase A (Thermo Scientific) and 40 µg/ml propidium iodide (Life Technologies). DNA content was determined using a flow cytometer Attune^TM NxT (Thermofisher) and ten thousand events were collected in each run. The data were analysed using FCS Express 7 Pro software (De Novo).

[1] = parameters: method as in PMID 22305342; conditions: cited from earlier work

SMILES: CCCNc1ccc2ncc(-c3ccc4[nH]ncc4c3)n2n1 [CHR-6494, reference compound]
- % of cycling cells G2/M (U-2 OS cells; DMSO control 6%): 17%
- % of cycling cells S (U-2 OS cells; DMSO control 44%): 38%
- % of cycling cells G1 (U-2 OS cells; DMSO control 50%): 45%

SMILES: O=c1oc2ccc(O)cc2c2c1[nH]c1ccccc12 [Compound 1a]
- Stability in basic media [1]: instability in basic media

SMILES: O=c1oc2ccc(O)cc2c2c1[nH]c1cc(O)ccc12 [Compound 1b]
- Stability in basic media [1]: instability in basic media
